# Test results published in article PMC10160475, “Biological evaluation and in silico studies of novel compounds as potent TAAR1 agonists that could be used in schizophrenia treatment” (Frontiers in Pharmacology, 2023).
# Key:
# human TAAR1 = target: T1, human TAAR1 (Homo sapiens, UniProt Q96RJ0); experiment: cAMP assay, functional agonist activity at human TAAR1; format: cell-based
# T1 construct: expressed in transfected cells; host or cells: cAMP Hunter CHO-K1 AGTRL1 Gi cells
# T1 sequence (Q96RJ0 1-339): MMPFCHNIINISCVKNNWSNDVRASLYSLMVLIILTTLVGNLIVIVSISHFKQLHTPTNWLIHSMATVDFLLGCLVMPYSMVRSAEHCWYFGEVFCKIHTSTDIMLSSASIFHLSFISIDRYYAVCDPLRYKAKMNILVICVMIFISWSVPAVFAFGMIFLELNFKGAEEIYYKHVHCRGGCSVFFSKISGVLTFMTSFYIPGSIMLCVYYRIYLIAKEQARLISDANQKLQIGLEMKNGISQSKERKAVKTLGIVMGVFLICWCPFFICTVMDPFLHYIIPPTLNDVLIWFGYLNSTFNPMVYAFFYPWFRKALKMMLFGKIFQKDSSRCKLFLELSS
# Experimental: Cells were seeded in a total volume of 20 µL into white-walled, 384-well microplates, followed by incubation at 37°C for the appropriate time before testing. Different concentrations of compounds were added to cells, and incubation was undertaken at 37°C for 10 min, with p-tyramine used as the MAX control. cAMP modulation was determined using the DiscoverX HitHunter cAMP XS + assay. Percentage activity was calculated using the following equation: Activity %=mean RLUtest sample – mean RLUvehicle control/mean RLUMAX control – mean RLUvehicle control×100%.
# human 5-HT1A = target: T2, human 5-HT1A (Homo sapiens, UniProt P08908); experiment: Calcium (FLIPR) assay, agonist activity at human 5-HT1A; format: cell-based
# T2 construct: expressed in transfected cells; host or cells: Gα15-CHO-Clone cells
# T2 sequence (P08908 1-422): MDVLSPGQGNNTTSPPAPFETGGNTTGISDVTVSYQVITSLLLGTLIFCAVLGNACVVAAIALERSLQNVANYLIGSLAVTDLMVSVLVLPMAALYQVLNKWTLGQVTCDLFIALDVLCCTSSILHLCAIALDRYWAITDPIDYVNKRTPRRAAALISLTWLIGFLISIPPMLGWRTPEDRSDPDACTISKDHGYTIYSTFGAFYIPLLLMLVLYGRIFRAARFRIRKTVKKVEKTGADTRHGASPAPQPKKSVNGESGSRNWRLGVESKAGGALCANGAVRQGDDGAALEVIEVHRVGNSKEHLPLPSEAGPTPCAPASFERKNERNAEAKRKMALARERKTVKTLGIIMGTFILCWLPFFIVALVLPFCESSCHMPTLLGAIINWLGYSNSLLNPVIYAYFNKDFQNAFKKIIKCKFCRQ
# Experimental: With respect to 5-HT1A, recombinant Gα15-CHO-Clone cells expressing human 5-HT1A were used in this test. Cells were cultured with MEM supplemented with 10% FBS, penicillin (100 U/ml), streptomycin (100 μg/ml), and hygromycin B (600 μg/ml) and were seeded in 384-well microplates. Cells were stimulated with different concentrations of compounds for 2 h at 37°C, and the agonistic effect was determined using the FLIPR Calcium Assay Kit. Serotonin was used as the MAX control. Percentage activity was calculated using the following equation: Activity %=mean RLUtest sample−mean RLUvehicle control/mean RLUMAX control−mean RLUvehicle control×100%.
# [1] = Tissue distribution (brain and plasma) in rats; format: in vivo, Sprague–Dawley rats
# Experimental: Rats (three males and three females) were sacrificed at 0.25, 1, or 6 h after administration of 50B (5 mg/kg, i.g.). Blood and brain tissues were harvested. The concentration of compounds in all tissue and blood samples was determined by LC-MS/MS. Drug concentration data were processed in a non-atrioventricular model using WinNonlin™ 6.3.
# [2] = test system: MK801-induced schizophrenia-like behavior; experiment: MK801-induced schizophrenia-like behavior (open field, distance traveled); format: in vivo, C57BI/6J mice
# Experimental: Ninety-nine male C57BI/6J mice were divided randomly into 11 groups. Mice were placed in a room 1 h before testing. They were administered (p.o.) vehicle (0.1 ml/10 g), 50A (0.3, 1, 3, and 10 mg/kg; 0.1 ml/10 g), or 50B (0.3, 1, 3, and 10 mg/kg; 0.1 ml/10 g). […] Then, mice were administered (i.p.) MK801 (0.8 mg/kg dissolved in physiologic saline; 0.1 ml/10 g). After 30 min, the distance that mice traveled was measured.
# Forty-six male C57BI/6J mice were divided randomly into four groups. The CN group contained four mice. […] The administration method described previously was employed.
# catalepsy = experiment: Catalepsy assay (bar test); format: in vivo, C57BI/6J mice; settings: 100 mg/kg p.o., 30 and 90 min after administration
# Experimental: Twenty-four male C57BI/6J mice were divided randomly into four groups. Mice were placed in a room 1 h before testing. […] The front paws of mice were placed on a horizontal metal bar raised 2 inches above a Plexiglas™ platform 30 min and 90 min after administration. The time the front paws of mice were placed on the platform was recorded at ≤30 s per trial. Each test was repeated three times.
# [3] = Liver microsomal stability, human
# Experimental: Compounds were incubated with samples of liver microsomes from mice, rats, and humans and NADPH for 5, 10, 20, 30, or 60 min at 37°C. A cold acetonitrile solution containing tolbutamide was used to terminate the reaction. Testosterone and dextromethorphan were used as positive controls. LC-MS/MS was employed to determine the retention of compounds. The retention time, chromatogram acquisition, and chromatogram integration of compounds and positive control substances were analyzed using Analyst (AB Sciex, Framingham, MA, United States).
# [4] = Liver microsomal stability, monkey
smiles,measurement,setting,value
c1csc([C@@H]2CNCCO2)c1 [Compound 50B],EC50,human TAAR1,0.405 µM
same,Emax,human TAAR1; read-out: TAAR1 Agonist % Emax,80.1%
same,EC50,human 5-HT1A,99.8 µM
same,Emax,"human 5-HT1A; serotonin as MAX control, up to 100 μM, read-out: 5-HT1A agonism Emax",50.3%
same,Concentration ratio brain to plasma compared with SEP-856,"[1]; rats, 5 mg/kg i.g.",increased significantly compared with that of SEP-856
same,Plasma concentration compared with SEP-856,"[1]; rats, 5 mg/kg i.g., same time point",lower than that of SEP-856
same,Detection in rat brain,"[1]; single intragastric administration, 5 mg/kg, 0.25 to 6 h",detected in rat brains from 0.25 to 6 h
same,MK801-induced increase in distance traveled,"[2]; mice, 10 mg/kg p.o., MK801 0.8 mg/kg i.p.",significantly reduced
same,Inhibition of MK801-induced schizophrenia-like behavior (effective doses),"[2]; mice, single oral dose 0.3, 1, 3 and 10 mg/kg, MK801 0.8 mg/kg i.p.","markedly at 1, 3, and 10 mg/kg"
same,Distance moved by mice in the presence or absence of MK801,"[2]; single oral dose 0.3, 1, 3 and 10 mg/kg",significantly reduced the distance moved by mice
same,Time mice spent holding bars (catalepsy),catalepsy,did not increase this time
same,Remaining (T = 60 min),"[3]; Human liver microsomes, 60 min",77.2%
same,CLint scaled,"[3]; human, liver microsomes",7.74 mL/min/kg
same,half-life,"[3]; human, liver microsomes",2.68 h
same,Remaining (T = 60 min),"[4]; Monkey liver microsomes, 60 min",85.1%
same,CLint scaled,"[4]; monkey, liver microsomes",< 13.5 mL/min/kg
same,half-life,"[4]; monkey, microsomes",> 3.1 h
